According to ChEMBL document CHEMBL1158075, “Brominated cyclodipeptides from the marine sponge Geodia barretti as selective 5-HT ligands” (J Nat Prod, 2006):

Key:
[1] = biological target: T1, 5-hydroxytryptamine receptor 2C (Homo sapiens, UniProt P28335); experiment: Displacement of [N-methyl-3H]LSD from human 5HT2C receptor expressed in HEK293 cells; type: cell-based
T1 sequence (P28335 whole entry): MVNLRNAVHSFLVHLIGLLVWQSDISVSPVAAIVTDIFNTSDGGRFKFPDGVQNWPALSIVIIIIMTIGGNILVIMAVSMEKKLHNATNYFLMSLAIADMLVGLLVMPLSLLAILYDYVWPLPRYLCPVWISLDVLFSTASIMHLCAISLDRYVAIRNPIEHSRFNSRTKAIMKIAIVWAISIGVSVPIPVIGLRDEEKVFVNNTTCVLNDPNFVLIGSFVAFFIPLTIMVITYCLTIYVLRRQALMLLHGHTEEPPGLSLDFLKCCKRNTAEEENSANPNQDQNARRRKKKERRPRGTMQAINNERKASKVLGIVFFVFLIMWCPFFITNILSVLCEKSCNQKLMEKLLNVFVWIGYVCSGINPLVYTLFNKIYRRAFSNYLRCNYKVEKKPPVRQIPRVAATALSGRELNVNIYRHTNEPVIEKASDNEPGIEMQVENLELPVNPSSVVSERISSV

[2] = biological target: T2, 5-hydroxytryptamine receptor 4 (Homo sapiens, UniProt Q13639); experiment: Binding affinity to human 5HT4 receptor expressed in HEK293 cells by saturation binding method; type: cell-based
T2 sequence (Q13639 whole entry): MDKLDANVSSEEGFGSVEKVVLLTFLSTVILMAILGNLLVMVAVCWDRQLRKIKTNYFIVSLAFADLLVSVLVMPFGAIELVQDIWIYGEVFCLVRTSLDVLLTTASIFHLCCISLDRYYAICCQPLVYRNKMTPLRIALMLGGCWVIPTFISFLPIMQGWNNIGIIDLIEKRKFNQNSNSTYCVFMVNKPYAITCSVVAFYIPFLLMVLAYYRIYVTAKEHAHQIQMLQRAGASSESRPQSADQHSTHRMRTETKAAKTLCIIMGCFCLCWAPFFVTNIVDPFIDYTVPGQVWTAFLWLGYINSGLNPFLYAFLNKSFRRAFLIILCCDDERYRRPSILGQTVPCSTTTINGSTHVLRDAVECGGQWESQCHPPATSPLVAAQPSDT

[3] = biological target: 5-hydroxytryptamine receptor 2A (Homo sapiens, UniProt P28223); experiment: biochemical; type: cell-based, HEK293
Chain of 5-hydroxytryptamine receptor 2A (P28223 whole entry): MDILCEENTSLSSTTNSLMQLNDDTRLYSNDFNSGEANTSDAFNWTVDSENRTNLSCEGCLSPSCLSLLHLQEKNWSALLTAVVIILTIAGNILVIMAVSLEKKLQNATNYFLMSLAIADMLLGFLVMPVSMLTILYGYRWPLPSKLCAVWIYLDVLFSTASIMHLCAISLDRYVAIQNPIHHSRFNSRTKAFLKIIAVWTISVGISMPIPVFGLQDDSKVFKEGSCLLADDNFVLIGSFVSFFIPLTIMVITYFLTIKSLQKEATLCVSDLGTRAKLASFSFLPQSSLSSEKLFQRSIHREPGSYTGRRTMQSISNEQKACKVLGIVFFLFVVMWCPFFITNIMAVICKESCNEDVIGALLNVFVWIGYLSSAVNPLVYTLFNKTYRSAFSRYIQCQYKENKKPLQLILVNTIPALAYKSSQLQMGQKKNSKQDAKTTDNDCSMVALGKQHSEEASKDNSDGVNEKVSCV

[4] = biological target: T2, 5-hydroxytryptamine receptor 4; experiment: Displacement of [N-methyl-3H]GR-113808 from human 5HT4 receptor expressed in HEK293 cells; type: cell-based

Work on `NC(N)=NCCC[C@@H]1NC(=O)[C@H](Cc2c[nH]c3cc(Br)ccc23)NC1=O` yielded a Ki [1] of 4630 nM.
In the case of `[3H]C([3H])([3H])n1cc(C(=O)OCC2CCN(CCNS(C)(=O)=O)CC2)c2ccccc21`, the Kd [2] is reported as 15.8 nM.
`N=C(N)NCCC[C@@H]1NC(=O)/C(=C/c2c[nH]c3cc(Br)ccc23)NC1=O` [BARETTIN] was tested, and the Ki [3] was 1930 nM, the Ki [4] was 1910 nM and the Ki [1] was 340 nM.
In the case of `CC[C@@H](CO)NC(=O)[C@@H]1C=C2c3cccc4c3c(cn4C)C[C@H]2N(C)C1` [METHYSERGIDE], the Ki [1] is reported as 2.5 nM.
`CCCCCNC(=N)N/N=C/c1c[nH]c2ccc(OC)cc12` [TEGASEROD] gave a Ki [4] of 31 nM.
